The test system of data set [1] is PBMC. In words: Inhibition of IL-6 production in LPS-induced human PBMC preincubated for 1 hr followed by LPS-stimulation and measured after 20 hrs by magnetic beads technique based assay. It is filed as functional, tissue-based. As to conditions: time 21.0 hrs.
For data set [2], the system named is PBMC. In words: Inhibition of MCP-1 production in LPS-induced human PBMC preincubated for 1 hr followed by LPS-stimulation and measured after 20 hrs by magnetic beads technique based assay. It is filed as functional, tissue-based. The following applies: time 21.0 hrs.
Data set [3] addresses T1, Bromodomain-containing protein 4 (Homo sapiens, UniProt O60885). The experiment in a line: Inhibition of BRD4 in human PBMC assessed as reduction in LPS-induced TNFalpha secretion preincubated for 1 hr followed by LPS-stimulation and measured after 20 hrs by magnetic beads technique based assay.
The target in data set [4] is T1, Bromodomain-containing protein 4. The experiment in a line: Inhibition of BRD4-BD1 (unknown origin) by TR-FRET assay. Background: In TR-FRET formats the signal depends on donor and acceptor labels being close together.
Data set [5] deals with T2, Voltage-gated inwardly rectifying potassium channel KCNH2 (Homo sapiens, UniProt Q12809). The experiment in a line: Inhibition of human ERG stably expressed in CHO cells at holding potential of -80 mV incubated for 12 mins.
Data set [6] addresses T3, Mitogen-activated protein kinase 7 (Homo sapiens, UniProt Q13164). In words: Inhibition of recombinant human ERK5 using myelin basic protein as substrate by [gamm33P]ATP based HotSpot radiometric assay.
The nature of data set [7]: Stability of compound in human liver microsomes assessed as parent compound remaining after 1 hr. A general note: Liver microsomes are vesicles of endoplasmic reticulum, rich in cytochrome P450 enzymes.
Data set [8] is described as follows: Dissociation constant, pKa of compound. It counts as physicochemical.
Data set [9] addresses T2, Voltage-gated inwardly rectifying potassium channel KCNH2. The experiment in a line: Inhibition of human ERG.
The target of data set [10] is T3, Mitogen-activated protein kinase 7. The experiment in a line: Inhibition of ERK5 (unknown origin).
The target of data set [11] is T1, Bromodomain-containing protein 4. In words: Binding affinity to BRD4-BD1 (unknown origin).

Data on eleven compounds can be found in ChEMBL document CHEMBL4715913, “Discovery of benzo[f]pyrido[4,3-b][1,4]oxazepin-10-one derivatives as orally available bromodomain and extra-terminal domain (BET) inhibitors with efficacy in an in vivo psoriatic animal model” (Bioorg Med Chem, 2021).

The source made the active and inactive calls. The calls are words filed in the database; no cut-off is given here.

T2 sequence (Q12809 whole entry): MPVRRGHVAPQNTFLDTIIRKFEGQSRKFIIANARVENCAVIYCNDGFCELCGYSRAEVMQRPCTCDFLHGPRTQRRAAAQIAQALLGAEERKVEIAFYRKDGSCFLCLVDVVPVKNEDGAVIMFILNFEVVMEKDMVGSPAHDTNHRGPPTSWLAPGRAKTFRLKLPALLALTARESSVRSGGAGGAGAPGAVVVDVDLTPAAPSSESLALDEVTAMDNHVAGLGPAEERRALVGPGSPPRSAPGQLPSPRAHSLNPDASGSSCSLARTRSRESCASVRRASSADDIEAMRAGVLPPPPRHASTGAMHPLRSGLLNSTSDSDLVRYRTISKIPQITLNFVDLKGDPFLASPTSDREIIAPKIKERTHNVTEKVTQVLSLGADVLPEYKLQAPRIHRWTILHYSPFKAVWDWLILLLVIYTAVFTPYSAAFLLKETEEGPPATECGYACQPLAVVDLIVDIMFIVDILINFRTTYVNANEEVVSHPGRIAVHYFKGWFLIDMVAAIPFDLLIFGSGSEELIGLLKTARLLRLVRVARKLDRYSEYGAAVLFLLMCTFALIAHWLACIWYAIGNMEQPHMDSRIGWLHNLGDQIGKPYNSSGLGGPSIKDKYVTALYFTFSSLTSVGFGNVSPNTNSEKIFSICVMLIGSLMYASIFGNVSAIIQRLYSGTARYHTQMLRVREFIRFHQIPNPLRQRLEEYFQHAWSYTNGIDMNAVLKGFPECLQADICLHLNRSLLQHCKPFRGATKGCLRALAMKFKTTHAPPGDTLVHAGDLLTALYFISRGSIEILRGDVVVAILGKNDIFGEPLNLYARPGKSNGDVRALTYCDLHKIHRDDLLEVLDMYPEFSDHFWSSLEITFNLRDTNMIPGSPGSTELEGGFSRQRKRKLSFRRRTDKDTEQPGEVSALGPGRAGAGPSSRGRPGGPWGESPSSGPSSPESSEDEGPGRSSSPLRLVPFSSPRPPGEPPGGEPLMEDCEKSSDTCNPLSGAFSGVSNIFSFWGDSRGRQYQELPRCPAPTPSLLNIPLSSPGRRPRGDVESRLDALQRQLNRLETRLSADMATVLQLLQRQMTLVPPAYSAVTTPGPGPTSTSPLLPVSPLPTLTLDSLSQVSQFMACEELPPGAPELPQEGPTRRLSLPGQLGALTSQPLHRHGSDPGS
T3 sequence (Q13164 whole entry): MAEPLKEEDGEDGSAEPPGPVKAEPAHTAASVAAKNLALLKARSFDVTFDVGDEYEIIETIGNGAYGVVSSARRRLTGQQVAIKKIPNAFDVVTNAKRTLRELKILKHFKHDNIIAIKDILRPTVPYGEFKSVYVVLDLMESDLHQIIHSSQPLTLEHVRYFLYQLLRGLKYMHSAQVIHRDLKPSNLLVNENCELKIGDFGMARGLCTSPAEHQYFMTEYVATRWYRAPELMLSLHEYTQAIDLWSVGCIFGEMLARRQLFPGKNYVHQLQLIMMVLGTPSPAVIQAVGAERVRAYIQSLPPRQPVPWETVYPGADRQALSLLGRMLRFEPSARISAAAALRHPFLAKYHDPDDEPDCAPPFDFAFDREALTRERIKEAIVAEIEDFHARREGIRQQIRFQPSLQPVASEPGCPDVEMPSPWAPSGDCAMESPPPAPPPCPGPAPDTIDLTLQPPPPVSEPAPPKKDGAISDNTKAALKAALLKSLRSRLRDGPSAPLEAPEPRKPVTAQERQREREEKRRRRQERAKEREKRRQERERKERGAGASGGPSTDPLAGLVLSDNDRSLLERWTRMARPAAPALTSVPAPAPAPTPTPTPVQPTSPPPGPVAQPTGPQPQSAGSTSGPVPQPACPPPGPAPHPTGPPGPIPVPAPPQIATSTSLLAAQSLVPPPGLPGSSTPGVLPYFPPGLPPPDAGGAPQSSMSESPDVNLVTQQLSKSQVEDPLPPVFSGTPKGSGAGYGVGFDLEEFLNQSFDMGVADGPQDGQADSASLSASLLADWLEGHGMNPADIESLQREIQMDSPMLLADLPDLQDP

Broadly, the EC50 is the concentration that produces a half-maximal response. For orientation: IC50 means the concentration needed to halve the response being measured. For the compound `COc1cccc2c1Oc1cc(N[C@H]3CC[C@H](O)CC3)ncc1N(C)C2=O`, the inhibition entry in the data set with PBMC [1] and with PBMC [2] was “Active” in each case. Further, the EC50 in [3] stood at 1.38 µM. Besides, the 50% inhibitory concentration (IC50) in data set [4] is 2.82 µM; in [5] it was greater than 10 µM; in data set [6] it was 1.1 µM. For the same compound, the share remaining at 1 h in data set [7] was determined as 85%.

As to `CN1C(=O)c2ccccc2Sc2cc(N[C@H]3CC[C@H](O)CC3)ncc21`, the inhibition result in the data set on PBMC [1] and with PBMC [2] was “Active” in each case. The compound further showed an IC50 in data set [4] greater than 30 µM.

In the case of `CN1C(=O)c2ccccc2Oc2cc(N[C@H]3CC[C@H](O)CC3)ncc21`, the inhibition result in the data set on PBMC [1] and in the data set on PBMC [2] was “Active” in each case. Further, in data set [3], the EC50 worked out at 2.7 µM. Further, the results for the IC50 in data set [4], in [5] and in data set [6] were 9.37 µM, greater than 10 µM and 0.266 µM, respectively. Also, the amount remaining at 1 h in [7] worked out at 97%.

With `CCO[C@@H]1CCCC[C@@H]1Nc1cc2c(cn1)N(C)C(=O)c1ccccc1N2C` (relative stereo), the inhibition entry in the data set with PBMC [1] and with PBMC [2] was “Active” in each case. Further, the EC50 in [3] was found to be 2.95 µM. Also, the 50% inhibitory concentration (IC50) in [4] was 15.4 µM; in data set [6] it was greater than 10 µM.

On to `CN1C(=O)c2cccc(F)c2Oc2cc(N[C@H]3CC[C@H](O)CC3)ncc21`, for which the inhibition entry with PBMC [1] and in the data set with PBMC [2] was “Active” in each case. Also, in data set [3], the EC50 was 1.72 µM. Moreover, the 50% inhibitory concentration (IC50) in data set [4] was 11.2 µM; in data set [5], greater than 10 µM; in [6] it was 0.393 µM. Besides, in data set [7], the amount remaining at 1 h amounted to 114%.

`CN1C(=O)c2c(F)ccc(F)c2Oc2cc(N[C@H]3CC[C@H](O)CC3)ncc21`: the inhibition result in the data set with PBMC [1] and with PBMC [2] was “Active” throughout. For the same compound, the EC50 in [3] turned out to be 0.43 µM. Moreover, the half-maximal inhibitory concentration (IC50) in data set [4] is 2.01 µM; in [5], greater than 10 µM; in data set [6], 0.213 µM. The share remaining at 1 h in data set [7] amounted to 90%.

As for `CCO[C@H]1CC[C@H](Nc2cc3c(cn2)N(C)C(=O)c2ccccc2N3C)CC1`, the inhibition entry in the data set with PBMC [1] and in the data set with PBMC [2] was “Active” each time. In data set [3], the EC50 was 2.74 µM. The values for the half-inhibitory concentration (IC50) in [4] and in data set [6] were 9.99 µM and 0.081 µM, respectively.

`CN1C(=O)c2ccccc2S(=O)(=O)c2cc(N[C@H]3CC[C@H](O)CC3)ncc21`: the inhibition result in the data set on PBMC [1] and in the data set on PBMC [2] was “Active” throughout. This compound returned an IC50 in data set [4] greater than 30 µM.

For the compound `CN1C(=O)c2ccccc2N(C)c2cc(N[C@H]3CC[C@@H](O)CC3)ncc21`, the inhibition result with PBMC [1] and in the data set on PBMC [2] was “Active” each time. The EC50 in data set [3] was 3.07 µM. For the same compound, the figures for the IC50 in data set [4] and in data set [6] were 6.91 µM and 2.23 µM, respectively.

The term pKa denotes the negative logarithm of the acid dissociation constant. Read a low pKa as a group that gives up its proton readily. The term Kd denotes the concentration at which binding is half-saturated. High values mean a looser complex, low ones a tighter complex. `CN1C(=O)c2ccccc2N(C)c2cc(N[C@H]3CC[C@H](O)CC3)ncc21` gave a pKa in [8] of 5.06. In addition, the IC50 is greater than 10 µM in data set [9], 0.089 µM in [10], 5.99 µM in [4] and 0.089 µM in data set [6]. For the same compound, the inhibition result in the data set with PBMC [1] and in the data set with PBMC [2] was “Active” in each case. The compound also yielded a Kd in data set [11] of 0.13 µM. Moreover, the EC50 in data set [3] turned out to be 2.11 µM.

Consider `CN1C(=O)c2cccc(Cl)c2Oc2cc(N[C@H]3CC[C@H](O)CC3)ncc21`, for which the inhibition entry in the data set with PBMC [1] and with PBMC [2] was “Active” in each case. For the same compound, the EC50 in data set [3] came to 1.17 µM. In addition, the IC50 was 12.8 µM in data set [4], greater than 10 µM in data set [5] and 1.05 µM in [6]. Besides, the amount remaining at 1 h in [7] was found to be 103%.
